Laboratory results from publication PMC11167047 (Cell Death Discovery, 2024).

Legend:
Assay in all cases: kinome screen (33PanQinase)
Format in all cases: biochemical
CK2α2 = molecular target: T1, CK2α2 (Homo sapiens, UniProt P19784)
T1 construct: purchased Reaction Biology Europe GmbH (formerly ProQinase)
Description: (§1) The Kinome Screening was performed by Reaction Biology Europe GmbH (http://reactionbiology.com; Freiburg i. Br., Germany).

CK2α1 = molecular target: T2, CK2α1 (Homo sapiens, UniProt P68400)
T2 construct: purchased Reaction Biology Europe GmbH (formerly ProQinase)
Description: as §1

FGFR2 = molecular target: T3, FGFR2 (Homo sapiens, UniProt P21802)
T3 construct: purchased Reaction Biology Europe GmbH (formerly ProQinase)
Description: as §1

LIMK1 = molecular target: T4, LIMK1 (Homo sapiens, UniProt P53667)
T4 construct: purchased Reaction Biology Europe GmbH (formerly ProQinase)
Description: as §1

MAP3K7/MAP3K7IP1 = molecular target: T5, MAP3K7/MAP3K7IP1 (Homo sapiens, UniProt O43318)
T5 construct: purchased Reaction Biology Europe GmbH (formerly ProQinase)
T5 sequence (O43318 1-303 limits assumed): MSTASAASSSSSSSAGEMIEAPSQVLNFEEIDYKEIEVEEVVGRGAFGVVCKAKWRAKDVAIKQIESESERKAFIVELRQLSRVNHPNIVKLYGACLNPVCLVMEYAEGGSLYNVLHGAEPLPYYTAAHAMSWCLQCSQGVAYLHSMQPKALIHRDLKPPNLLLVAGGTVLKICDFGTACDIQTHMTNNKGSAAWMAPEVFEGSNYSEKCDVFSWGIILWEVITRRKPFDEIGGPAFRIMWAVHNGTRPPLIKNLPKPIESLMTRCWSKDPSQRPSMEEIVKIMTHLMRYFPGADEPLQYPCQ
T5 sequence (Q15750 437-504 partner limits assumed): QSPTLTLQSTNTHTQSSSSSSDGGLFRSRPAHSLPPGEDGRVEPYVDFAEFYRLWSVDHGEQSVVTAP
Description: as §1

GRK4 = molecular target: T6, GRK4 (Homo sapiens, UniProt P32298)
T6 construct: purchased Reaction Biology Europe GmbH (formerly ProQinase)
Description: as §1

SRPK2 = molecular target: T7, SRPK2 (Homo sapiens, UniProt P78362)
T7 construct: purchased Reaction Biology Europe GmbH (formerly ProQinase)
Description: as §1

BMX = molecular target: T8, BMX (Homo sapiens, UniProt P51813)
T8 construct: purchased Reaction Biology Europe GmbH (formerly ProQinase)
T8 sequence (P51813 1-675): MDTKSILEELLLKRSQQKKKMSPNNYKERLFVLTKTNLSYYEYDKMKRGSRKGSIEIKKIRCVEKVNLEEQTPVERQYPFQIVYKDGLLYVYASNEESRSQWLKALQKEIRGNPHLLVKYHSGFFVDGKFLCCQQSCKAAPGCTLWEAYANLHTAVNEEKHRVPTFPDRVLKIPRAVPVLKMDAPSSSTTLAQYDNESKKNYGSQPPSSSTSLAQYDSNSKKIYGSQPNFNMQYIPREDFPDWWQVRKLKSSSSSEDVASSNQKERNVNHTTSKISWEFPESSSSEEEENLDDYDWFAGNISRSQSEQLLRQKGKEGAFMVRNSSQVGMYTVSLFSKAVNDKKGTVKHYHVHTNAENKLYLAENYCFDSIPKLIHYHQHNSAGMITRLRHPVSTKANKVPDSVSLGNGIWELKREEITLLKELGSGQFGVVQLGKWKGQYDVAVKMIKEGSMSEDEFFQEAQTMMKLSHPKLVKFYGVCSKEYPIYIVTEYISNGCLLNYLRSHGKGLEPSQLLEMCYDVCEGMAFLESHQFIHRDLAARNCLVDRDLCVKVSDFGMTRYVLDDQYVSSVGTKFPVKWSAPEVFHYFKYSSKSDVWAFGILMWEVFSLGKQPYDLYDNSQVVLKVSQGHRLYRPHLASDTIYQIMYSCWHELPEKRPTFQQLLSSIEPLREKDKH
Description: as §1

SNK = molecular target: T9, SNK (Homo sapiens, UniProt Q9NYY3)
T9 construct: purchased Reaction Biology Europe GmbH (formerly ProQinase)
Description: as §1

TLK2 = molecular target: T10, TLK2 (Homo sapiens, UniProt Q86UE8)
T10 construct: purchased Reaction Biology Europe GmbH (formerly ProQinase)
Description: as §1

ALK = molecular target: T11, ALK (Homo sapiens, UniProt Q9UM73)
T11 construct: purchased Reaction Biology Europe GmbH (formerly ProQinase)
Description: as §1

ARK5 = molecular target: T12, ARK5 (Homo sapiens, UniProt O60285)
T12 construct: purchased Reaction Biology Europe GmbH (formerly ProQinase)
T12 sequence (O60285 1-661): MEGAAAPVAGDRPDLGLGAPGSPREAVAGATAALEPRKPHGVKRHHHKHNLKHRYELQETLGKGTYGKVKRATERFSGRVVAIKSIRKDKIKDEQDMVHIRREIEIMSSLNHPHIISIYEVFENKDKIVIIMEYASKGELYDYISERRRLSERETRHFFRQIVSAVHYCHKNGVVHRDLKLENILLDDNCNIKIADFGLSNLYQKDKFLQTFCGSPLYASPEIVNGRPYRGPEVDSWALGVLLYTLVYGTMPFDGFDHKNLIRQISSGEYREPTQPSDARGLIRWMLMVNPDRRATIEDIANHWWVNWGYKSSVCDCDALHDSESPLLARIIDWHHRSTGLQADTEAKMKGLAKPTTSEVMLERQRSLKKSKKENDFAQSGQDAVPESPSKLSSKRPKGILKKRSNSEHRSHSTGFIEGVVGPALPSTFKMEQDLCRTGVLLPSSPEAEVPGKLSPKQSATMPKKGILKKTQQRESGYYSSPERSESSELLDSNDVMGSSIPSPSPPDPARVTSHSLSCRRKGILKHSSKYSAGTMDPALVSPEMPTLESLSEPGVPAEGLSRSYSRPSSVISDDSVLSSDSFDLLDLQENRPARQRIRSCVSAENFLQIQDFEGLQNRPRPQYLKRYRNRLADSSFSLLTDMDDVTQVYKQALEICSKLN
Description: as §1

MELK = molecular target: T13, MELK (Homo sapiens, UniProt Q14680)
T13 construct: purchased Reaction Biology Europe GmbH (formerly ProQinase)
Description: as §1

EPHA5 = molecular target: T14, EPHA5 (Homo sapiens, UniProt P54756)
T14 construct: purchased Reaction Biology Europe GmbH (formerly ProQinase)
Description: as §1

CAMKK1 = molecular target: T15, CAMKK1 (Homo sapiens, UniProt Q8N5S9)
T15 construct: purchased Reaction Biology Europe GmbH (formerly ProQinase)
Description: as §1

T2 sequence (P68400 whole entry): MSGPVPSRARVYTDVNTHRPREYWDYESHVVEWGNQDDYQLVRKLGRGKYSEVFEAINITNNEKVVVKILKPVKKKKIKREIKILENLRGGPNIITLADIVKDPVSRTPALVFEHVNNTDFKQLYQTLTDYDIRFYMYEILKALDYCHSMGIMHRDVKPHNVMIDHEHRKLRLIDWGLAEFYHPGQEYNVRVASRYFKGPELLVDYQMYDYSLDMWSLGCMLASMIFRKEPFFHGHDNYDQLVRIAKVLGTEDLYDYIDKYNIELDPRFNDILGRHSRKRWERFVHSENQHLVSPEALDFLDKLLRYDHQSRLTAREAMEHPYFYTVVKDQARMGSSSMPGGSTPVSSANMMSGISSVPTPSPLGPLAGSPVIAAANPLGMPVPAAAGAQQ
T7 sequence (P78362 whole entry): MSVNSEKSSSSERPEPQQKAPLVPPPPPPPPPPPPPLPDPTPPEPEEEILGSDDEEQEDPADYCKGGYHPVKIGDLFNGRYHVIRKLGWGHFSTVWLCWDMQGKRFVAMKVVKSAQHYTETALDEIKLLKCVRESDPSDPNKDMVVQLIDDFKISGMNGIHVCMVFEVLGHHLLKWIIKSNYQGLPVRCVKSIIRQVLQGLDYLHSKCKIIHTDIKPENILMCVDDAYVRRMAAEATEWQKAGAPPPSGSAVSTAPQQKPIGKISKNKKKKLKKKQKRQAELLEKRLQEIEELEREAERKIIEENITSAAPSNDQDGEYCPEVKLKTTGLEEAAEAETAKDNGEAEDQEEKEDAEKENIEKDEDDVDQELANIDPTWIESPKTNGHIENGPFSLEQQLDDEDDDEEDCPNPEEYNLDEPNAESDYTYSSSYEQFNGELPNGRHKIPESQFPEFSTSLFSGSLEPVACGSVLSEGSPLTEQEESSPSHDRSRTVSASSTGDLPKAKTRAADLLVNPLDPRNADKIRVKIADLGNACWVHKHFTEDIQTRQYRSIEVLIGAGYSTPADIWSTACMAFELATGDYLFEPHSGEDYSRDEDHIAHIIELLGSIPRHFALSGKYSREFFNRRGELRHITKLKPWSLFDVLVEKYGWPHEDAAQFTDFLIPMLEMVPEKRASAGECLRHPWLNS
T1 sequence (P19784 whole entry): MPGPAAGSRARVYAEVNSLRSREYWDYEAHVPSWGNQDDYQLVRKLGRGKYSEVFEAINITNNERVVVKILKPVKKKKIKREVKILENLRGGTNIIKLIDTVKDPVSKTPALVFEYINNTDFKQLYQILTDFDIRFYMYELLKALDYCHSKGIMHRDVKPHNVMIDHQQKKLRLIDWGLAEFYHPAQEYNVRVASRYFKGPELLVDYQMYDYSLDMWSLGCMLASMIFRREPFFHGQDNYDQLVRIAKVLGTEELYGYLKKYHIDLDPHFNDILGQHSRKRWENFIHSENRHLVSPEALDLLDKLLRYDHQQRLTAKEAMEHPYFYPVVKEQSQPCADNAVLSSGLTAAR
T6 sequence (P32298 whole entry): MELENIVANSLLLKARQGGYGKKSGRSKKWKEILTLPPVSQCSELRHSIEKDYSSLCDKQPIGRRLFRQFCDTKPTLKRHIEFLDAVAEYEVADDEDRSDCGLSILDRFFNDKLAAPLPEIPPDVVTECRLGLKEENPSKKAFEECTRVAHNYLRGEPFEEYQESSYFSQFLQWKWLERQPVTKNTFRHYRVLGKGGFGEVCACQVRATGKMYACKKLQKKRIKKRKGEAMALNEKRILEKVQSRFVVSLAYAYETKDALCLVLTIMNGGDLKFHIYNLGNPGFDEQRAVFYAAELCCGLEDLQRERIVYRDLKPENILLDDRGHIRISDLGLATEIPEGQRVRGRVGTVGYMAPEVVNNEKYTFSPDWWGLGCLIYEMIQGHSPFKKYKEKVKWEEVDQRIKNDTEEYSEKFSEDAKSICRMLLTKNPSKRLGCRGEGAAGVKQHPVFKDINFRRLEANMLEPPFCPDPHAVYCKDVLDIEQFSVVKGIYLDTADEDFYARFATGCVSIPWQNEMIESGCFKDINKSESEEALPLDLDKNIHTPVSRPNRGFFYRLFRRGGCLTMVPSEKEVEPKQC
T3 sequence (P21802 22-821): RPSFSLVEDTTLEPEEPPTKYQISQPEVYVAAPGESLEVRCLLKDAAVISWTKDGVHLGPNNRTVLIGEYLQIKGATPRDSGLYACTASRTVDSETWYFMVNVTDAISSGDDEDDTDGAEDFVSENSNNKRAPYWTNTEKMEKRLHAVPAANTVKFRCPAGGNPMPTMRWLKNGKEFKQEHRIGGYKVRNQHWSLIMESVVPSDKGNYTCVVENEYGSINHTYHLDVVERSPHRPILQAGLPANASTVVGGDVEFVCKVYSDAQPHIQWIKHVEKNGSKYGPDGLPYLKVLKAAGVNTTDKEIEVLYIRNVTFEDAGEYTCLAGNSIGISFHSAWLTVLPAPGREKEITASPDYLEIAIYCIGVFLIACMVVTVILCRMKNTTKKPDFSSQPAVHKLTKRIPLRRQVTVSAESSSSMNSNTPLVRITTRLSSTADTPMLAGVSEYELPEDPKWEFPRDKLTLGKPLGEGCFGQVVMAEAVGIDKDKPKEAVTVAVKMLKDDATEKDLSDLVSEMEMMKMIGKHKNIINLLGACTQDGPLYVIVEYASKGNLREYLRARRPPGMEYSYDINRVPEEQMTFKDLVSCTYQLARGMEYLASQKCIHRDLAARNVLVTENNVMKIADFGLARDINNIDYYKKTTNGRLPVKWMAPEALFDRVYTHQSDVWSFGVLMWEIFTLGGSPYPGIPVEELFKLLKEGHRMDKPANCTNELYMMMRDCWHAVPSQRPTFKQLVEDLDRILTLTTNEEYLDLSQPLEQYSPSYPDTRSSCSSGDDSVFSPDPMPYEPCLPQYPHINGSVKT
T14 sequence (P54756 25-1037): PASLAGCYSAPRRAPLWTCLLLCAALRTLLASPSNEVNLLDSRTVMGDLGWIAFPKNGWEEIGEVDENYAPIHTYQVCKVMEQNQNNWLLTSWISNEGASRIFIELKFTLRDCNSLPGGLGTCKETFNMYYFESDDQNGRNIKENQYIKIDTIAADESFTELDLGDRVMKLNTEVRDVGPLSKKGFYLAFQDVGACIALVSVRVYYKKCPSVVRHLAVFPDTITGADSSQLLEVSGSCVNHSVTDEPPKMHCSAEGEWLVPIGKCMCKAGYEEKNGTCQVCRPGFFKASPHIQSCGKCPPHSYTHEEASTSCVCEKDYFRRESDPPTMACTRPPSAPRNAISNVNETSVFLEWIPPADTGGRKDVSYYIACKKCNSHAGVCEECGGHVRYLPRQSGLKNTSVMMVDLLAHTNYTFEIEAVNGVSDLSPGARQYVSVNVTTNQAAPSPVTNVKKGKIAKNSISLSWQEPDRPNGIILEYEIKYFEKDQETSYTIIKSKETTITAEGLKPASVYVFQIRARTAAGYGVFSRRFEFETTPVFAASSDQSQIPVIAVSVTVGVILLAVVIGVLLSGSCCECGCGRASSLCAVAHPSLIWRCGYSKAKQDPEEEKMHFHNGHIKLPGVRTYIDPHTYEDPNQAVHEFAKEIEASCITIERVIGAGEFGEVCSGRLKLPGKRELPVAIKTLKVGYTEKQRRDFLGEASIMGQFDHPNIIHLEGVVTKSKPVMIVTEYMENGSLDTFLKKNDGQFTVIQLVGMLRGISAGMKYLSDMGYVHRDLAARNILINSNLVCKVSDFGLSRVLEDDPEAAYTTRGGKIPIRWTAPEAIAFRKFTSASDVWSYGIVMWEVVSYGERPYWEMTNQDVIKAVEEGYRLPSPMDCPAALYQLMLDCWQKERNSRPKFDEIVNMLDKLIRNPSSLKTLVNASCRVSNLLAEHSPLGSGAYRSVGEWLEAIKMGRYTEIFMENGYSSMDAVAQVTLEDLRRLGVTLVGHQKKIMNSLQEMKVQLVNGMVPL
T13 sequence (Q14680 whole entry): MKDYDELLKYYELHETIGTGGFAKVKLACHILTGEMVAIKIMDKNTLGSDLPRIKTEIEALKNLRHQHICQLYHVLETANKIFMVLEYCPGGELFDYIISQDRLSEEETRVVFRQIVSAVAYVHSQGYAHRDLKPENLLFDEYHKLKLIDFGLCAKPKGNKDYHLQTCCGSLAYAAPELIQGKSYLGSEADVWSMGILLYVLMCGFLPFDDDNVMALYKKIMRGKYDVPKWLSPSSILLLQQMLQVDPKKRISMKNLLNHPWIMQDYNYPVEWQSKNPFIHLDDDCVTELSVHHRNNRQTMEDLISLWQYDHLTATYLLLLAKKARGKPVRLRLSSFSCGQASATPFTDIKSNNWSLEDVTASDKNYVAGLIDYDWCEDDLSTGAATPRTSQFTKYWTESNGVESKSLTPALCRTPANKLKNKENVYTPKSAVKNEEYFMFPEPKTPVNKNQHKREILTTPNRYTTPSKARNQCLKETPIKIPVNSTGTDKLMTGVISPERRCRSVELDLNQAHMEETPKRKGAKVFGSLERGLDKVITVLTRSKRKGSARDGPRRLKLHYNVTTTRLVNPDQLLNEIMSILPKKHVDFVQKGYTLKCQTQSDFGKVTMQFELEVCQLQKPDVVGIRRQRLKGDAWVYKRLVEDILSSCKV
T15 sequence (Q8N5S9 whole entry): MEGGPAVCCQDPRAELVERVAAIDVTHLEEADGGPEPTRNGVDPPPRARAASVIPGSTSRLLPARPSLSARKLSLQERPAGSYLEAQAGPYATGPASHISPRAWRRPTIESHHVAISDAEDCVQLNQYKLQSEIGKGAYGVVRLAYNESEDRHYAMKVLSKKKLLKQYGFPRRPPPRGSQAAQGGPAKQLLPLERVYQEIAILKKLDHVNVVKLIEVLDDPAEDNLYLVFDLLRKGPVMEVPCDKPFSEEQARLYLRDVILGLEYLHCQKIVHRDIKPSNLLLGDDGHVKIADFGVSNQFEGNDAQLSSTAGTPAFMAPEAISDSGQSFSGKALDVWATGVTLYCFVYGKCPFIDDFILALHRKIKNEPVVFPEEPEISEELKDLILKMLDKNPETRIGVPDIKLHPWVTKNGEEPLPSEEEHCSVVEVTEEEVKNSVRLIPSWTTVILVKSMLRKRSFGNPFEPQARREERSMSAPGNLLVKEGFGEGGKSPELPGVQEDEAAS

Compound	residual kinase activity (CK2α2; 0.3 µM)	residual kinase activity (CK2α1; 0.3 µM)	residual kinase activity (FGFR2; 0.3 µM)	residual kinase activity (LIMK1; 0.3 µM)	residual kinase activity (MAP3K7/MAP3K7IP1; 0.3 µM)	residual kinase activity (GRK4; 0.3 µM)	residual kinase activity (SRPK2; 0.3 µM)	residual kinase activity (BMX; 0.3 µM)	residual kinase activity (SNK; 0.3 µM)	residual kinase activity (TLK2; 0.3 µM)	residual kinase activity (ALK; 0.3 µM)	residual kinase activity (ARK5; 0.3 µM)	residual kinase activity (MELK; 0.3 µM)	residual kinase activity (EPHA5; 0.3 µM)	residual kinase activity (CAMKK1; 0.3 µM)	further results
COc1ccnc2[nH]cc(-c3cc(N)nc(N)c3)c12 [meriolin 16]	105 % of control	104 % of control	85 % of control	3 % of control	17 % of control	90 % of control	91 % of control	103 % of control	98 % of control	91 % of control	77 % of control	88 % of control	14 % of control	102 % of control	95 % of control	residual kinase activity (CK2α2; 0.03 µM): 110 % of control; residual kinase activity (CK2α1; 0.03 µM): 106 % of control; residual kinase activity (FGFR2; 0.03 µM): 94 % of control; residual kinase activity (LIMK1; 0.03 µM): 10 % of control; residual kinase activity (MAP3K7/MAP3K7IP1; 0.03 µM): 54 % of control; residual kinase activity (GRK4; 0.03 µM): 101 % of control; residual kinase activity (SRPK2; 0.03 µM): 93 % of control; residual kinase activity (BMX; 0.03 µM): 118 % of control; residual kinase activity (SNK; 0.03 µM): 96 % of control; residual kinase activity (TLK2; 0.03 µM): 111 % of control; residual kinase activity (ALK; 0.03 µM): 104 % of control; residual kinase activity (ARK5; 0.03 µM): 92 % of control; residual kinase activity (MELK; 0.03 µM): 74 % of control; residual kinase activity (EPHA5; 0.03 µM): 115 % of control; residual kinase activity (CAMKK1; 0.03 µM): 97 % of control
c1ccc(CNc2cc(-c3c[nH]c4ncccc34)ccn2)cc1 [meriolin 36]	91 % of control	99 % of control	52 % of control	9 % of control	15 % of control	108 % of control	87 % of control	109 % of control	94 % of control	149 % of control	60 % of control	90 % of control	36 % of control	146 % of control	51 % of control	residual kinase activity (CK2α2; 3 µM): 43 % of control; residual kinase activity (CK2α1; 3 µM): 53 % of control; residual kinase activity (FGFR2; 3 µM): 9 % of control; residual kinase activity (LIMK1; 3 µM): 1 % of control; residual kinase activity (MAP3K7/MAP3K7IP1; 3 µM): 5 % of control; residual kinase activity (GRK4; 3 µM): 95 % of control; residual kinase activity (SRPK2; 3 µM): 55 % of control; residual kinase activity (BMX; 3 µM): 49 % of control; residual kinase activity (SNK; 3 µM): 43 % of control; residual kinase activity (TLK2; 3 µM): 88 % of control; residual kinase activity (ALK; 3 µM): 14 % of control; residual kinase activity (ARK5; 3 µM): 40 % of control; residual kinase activity (MELK; 3 µM): 9 % of control; residual kinase activity (EPHA5; 3 µM): 84 % of control; residual kinase activity (CAMKK1; 3 µM): 18 % of control
